Data: US20230257758A1, “PLANT METABOLITE-MEDIATED INDUCTION OF BIOFILM FORMATION IN SOIL BACTERIA TO INCREASE BIOLOGICAL NITROGEN FIXATION AND PLANT NITROGEN ASSIMILATION” (The Regents of the University of California, priority 2020, published 2023)

What was measured:
[1] = test system: Gluconacetobacter diazotrophicus; test: Microtiter-plate biofilm formation assay (crystal violet staining) with rice root exudates; type: cell-based; conditions: for Biofilm production (natural flavonoids, FIG. 7): exposed for 3 days to Oryza sativa root exudates supplemented with […] of the indicated compounds; for Biofilm formation in chemical screening (normalized to DMSO control): wild-type rice (Kitaake) root exudate 198 μL + 2 μL of 10 mM compound, 3 days, crystal violet staining; for Biofilm formation, comparison of flavones (FIG. 11): 3 days with Oryza sativa root exudates supplemented with indicated concentrations
Description: FIG. 3. […] Biofilm formation of Glucanoacetobacter diazotrophicus was assessed incubated with wild-type rice (Oryza sativa Kitaake) root exudates supplemented with 2 μl of each of 500 flavonoid and derivated compounds of a chemical library (FL-500, TimTec) and 700 compounds (natural and synthetic) (NPDepo library). Chemical screening was performed in a 96-well plate with each well containing: 198 μL of the Kitaake exudate and 2 μL of the 10 mM compound from the chemical libraries. An equal volume (2 μL) of DMSO was added to each well and served as the negative control. Gluconacetobacter diazotrophicus was added to the final OD600=0.01 to each well and incubated in a shaker at 150 rpm, 28° C. for 3 days before biofilm quantification by crystal violet staining. The value of each well in biofilm quantification was normalized to that of the DMSO control in each plate (DMSO=1). The heatmap was generated by the mean value of 3 biological replicates for each compound.
FIG. 7. Effect of natural flavonoids on biofilm formation in Glucanoacetobacter diazotrophicus. Induction of biofilm production in Gluconacetobacter diazotrophicus exposed to Oryza sativa root exudates supplemented with […] of the indicated compounds. Controls are exudates without compound and exudates with DMSO.
FIG. 11. Effects of Naringenin, Apigenin, Apigenin-7-Glucoside, and Luteolin on biofilm formation on Gluconacetobacter diazotrophicus. Values are the Mean±SD (n=6).
Any of a number of assays can be used to assess plants generated using the present methods, as well as to assess candidate plant molecules (e.g., other flavones) for their ability to upregulate biofilm production and assimilation of N2-fixing bacteria. For example, to confirm that the plants are exuding increased levels of the one or more flavones, root exudates from the plants can be isolated and the quantities and identities of the flavones determined, e.g., using mass spectrometry. In addition, the exudates (or other candidate biofilm-inducing molecules) can be incubated with N2-fixing bacteria, e.g., Glucanoacetobacter diazotrophicus, and the biofilm produced by the bacteria assessed. The biofilm can be quantified, e.g., by incubating the exudate (or candidate molecule or molecules) and bacteria in the wells of a microtiter plate, removing the cultures from the plate, washing the wells, adding a solution of crystal violet, rinsing and drying the plate, and then adding ethanol and measuring absorbance at, e.g., 540 nm. See, e.g. Example 1 and www.jove.com/video/2437/microtiter-dish-biofilm-formation-assay, the entire disclosure of which is herein incorporated by reference.
To assess the effect(s) of different chemicals on biofilm formation in N2-fixing bacteria, we used a published protocol (www.jove.com/video/2437/microtiter-dish-biofilm-formation-assay). Basically, bacteria were grown in a 96-well plate in a rich-nutrient medium at 28° C. The compound to be tested was added and the culture was grown overnight. Plant exudates and 2 μl of the compound were added to the well and the bacteria grown for 3 days under shaking (200 rpm). After 3 days, the planktonic bacterial cultures were discarded and the wells were thoroughly washed with water. A solution of 1% of crystal violet was added to each well of the plate and the plate shaken for 10-15 min at 200 rpm. The plates are rinsed 3-4 times with water (by submerging the plants in a tub of water), shaken vigorously and blotted on a stack of paper towels (to eliminate excess of cells and dye), the microliter plate was placed upside down and air dried. To quantify the amount of biofilm that adhered to the well walls, 200 μl of ethanol were added to each well, the plates shacked at 200 rpm, at 28° C. for 10-15 min. The absorbance of the solution was measured at 540 nm, using ethanol as a blank (FIG. 1). […]

Glucanoacetobacter = test: Biofilm formation in suspension of double-labelled (mCherry, gumDpro::GFP) Glucanoacetobacter; type: cell-based, Glucanoacetobacter diazotrophicus; conditions: addition of compound to a suspension of Glucanoacetobacter (FIGS. 5A, 5B)
Source text: (§1) FIGS. 5A-5C. Effects of the addition of luteolin or apigenin to biofilm formation in Glucanoacetobacter diazotrophicus. FIG. 5A: Effects of the addition of luteolin to biofilm formation in a Glucanoacetobacter diazotrophicus suspension.
The activity of the exudate or of candidate molecules can also be assessed in vivo, e.g., by using transgenic N2-fixing bacteria such as Glucanoacetobacter diazotrophicus that constitutively express a label such as mCherry. The bacteria can also express labeled components of biofilms, e.g., in bacteria transformed with gumDpro::GFP. The double labeling in such bacteria allows the visualization of the bacteria and, independently, the development of biofilm in the presence or absence of the exudate or candidate molecule.
Our results indicated clustering among common moieties, particularly among heterooctacyclic compounds (e.g., Staurosporine) and […] (e.g., luteolin, apigenin) and anthraquinones (e.g. 2H03 and 4G03—Papaverine). (FIG. 4). […] Therefore we assessed the effects of luteolin and apigenin in vivo. First we assessed the formation of chemical-induced formation of biofilm in bacterial cultures. For this, we generated transgenic Glucanoacetobacter constitutively expressing mCherry (transformed with pSEVAGeng-Luc-mCherry) in order to visualize mCherry fluorescent bacteria. Then we transformed the mCherry expressing bacteria with gumDpro::GFP. GumD encodes for components of the bacterial Exopolysacharides (EPS)] in order to visualize GFP-labelled biofilms. Thus the double labelling allowed as to follow the development of biofilm while visualizing the bacteria.

Azoarcus communis = test: Luteolin-induced biofilm production in N2-fixing bacteria; type: cell-based
Description: (§2) FIG. 8. Induction of biofilm production in facultative N2-fixing bacteria.
(§3) FIGS. 9A-9C. Effect of luteolin on biofilm production in Azoarcus sp. CIB (FIG. 9A), Azoarcus communis (FIG. 9B), and Burkholderia vietnamensis (FIG. 9C).
(§4) The effects of luteolin on the induction of biofilm production was tested in a number of N2-fixing bacteria (FIG. 8). While Burkholderia vietnamensis and Azoarcus sp. […] Also the response of the bacteria to luteolin was not uniform; Azoarcus sp.

Azoarcus sp. CIB = test: as above; type: cell-based
Description: as §2, §3, §4

[2] = test system: Burkholderia vietnamensis; test: as above; type: cell-based
Description: as §2, §3, §4

Azospirillum sp. 8510 = test: as above; type: cell-based
Description: as §2, §4

[3] = test system: Herbaspirillum seropedicae; test: as above; type: cell-based
Description: as §2, §4

[4] = test system: Glucanoacetobacter diazotrophicus; test: Acetylene reduction assay (ARA) for bacterial N2 fixation; type: cell-based; conditions: Kitaake rice root exudates and 100 μM, 3 days at 28° C., then acetylene 4 days
Description: as §1
FIGS. 12A-12C. Effects of flavones (Naringenin, Apigenin, Apigenin-7-Glucoside) on bacterium N2-fixation. FIG. 12A: Activity was assessed by measuring the conversion of acetylene to ethylene by Gas Chromatography. FIG. 12B: Assimilation of Nitrogen by Kitaake rice plants, incubated with Glucanoacetobacter in the absence (DMSO) or presence of Apigenin. Nitrogen assimilation was assessed by feeding ^15N2 and measuring assimilated inorganic ^15N in leaf tissues after 2 weeks, using Mass Spectroscopy. […]
The N2-fixing activity of the bacteria can be assessed, e.g., using an acetylene reduction assay (ARA), in which bacteria are cultured in the presence of acetylene gas, and the conversion of acetylene to ethylene measured by, e.g., gas chromatography.
To assess the effects of the flavones on bacteria N2 fixation, we used the acetylene reduction assay (ARA), where gas acetylene is added, and the resulting ethylene is measured by Gas Chromatography. […] Ten % of the air in the tube was replaced by acetylene, the cells incubated for 4 days and ethylene was measured by gas chromatography (FIG. 12A). […]

[5] = test system: Kitaake rice plants, incubated with Glucanoacetobacter; test: Assimilation of 15N2-derived nitrogen by rice plants incubated with bacteria; type: in vivo, Oryza sativa Kitaake; conditions: rice seedlings in soil with bacteria, 15N2 gas added; versus DMSO control
Description: (§5) FIGS. 12A-12C. Effects of flavones (Naringenin, Apigenin, Apigenin-7-Glucoside) on bacterium N2-fixation. FIG. 12A: Activity was assessed by measuring the conversion of acetylene to ethylene by Gas Chromatography. FIG. 12B: Assimilation of Nitrogen by Kitaake rice plants, incubated with Glucanoacetobacter in the absence (DMSO) or presence of Apigenin. Nitrogen assimilation was assessed by feeding ^15N2 and measuring assimilated inorganic ^15N in leaf tissues after 2 weeks, using Mass Spectroscopy. FIG. 12C: Kitaake rice roots incubated with Glucanoacetobacter in the absence (DMSO) or presence of Apigenin.
The genetically modified plants themselves can also be assessed in any of a number of ways. For example, plants can be grown in the presence of fluorescently labeled N2-fixing bacteria, and the adherence of the bacteria to the plant root hairs, either attached to the root surface or present inside the plant tissues, can be determined. The plants can also be assessed by determining the number of tillers and/or the seed yield. In some embodiments, the assimilation of N2 fixed by bacteria in the soil is assessed by, e.g., growing the plants in the presence of ^15N2 gas, and then measuring the level of ^15N assimilated in the plant leaves, e.g., using Mass spectroscopy. […]

[6] = test system: Kitaake rice roots incubated with Glucanoacetobacter; test: Microscopy of adherence of fluorescent bacteria to rice roots; type: in vivo, Oryza sativa Kitaake; conditions: versus DMSO
Description: as §5
The genetically modified plants themselves can also be assessed in any of a number of ways. For example, plants can be grown in the presence of fluorescently labeled N2-fixing bacteria, and the adherence of the bacteria to the plant root hairs, either attached to the root surface or present inside the plant tissues, can be determined. The plants can also be assessed by determining the number of tillers and/or the seed yield. In some embodiments, the assimilation of N2 fixed by bacteria in the soil is assessed by, e.g., growing the plants in the presence of ^15N2 gas, and then measuring the level of ^15N assimilated in the plant leaves, e.g., using Mass spectroscopy.
No bacteria was seen on the control treatments. […]

Compound: O=c1cc(-c2ccc(O)c(O)c2)oc2cc(O)cc(O)c12 [luteolin]
- Biofilm production (natural flavonoids, FIG. 7) [1]: induced a significant increase in biofilm production
- Biofilm formation in chemical screening (normalized to DMSO control) [1]: biofilm inducers
- Induction of biofilm formation in bacterial suspension (Glucanoacetobacter): induction of biofilm formation by increasing amounts of luteolin
- Luteolin-induced biofilm production (Azoarcus communis): did not show an enhanced biofilm production
- Luteolin-induced biofilm synthesis (Azoarcus sp. CIB; Azoarcus sp. CIB): displayed a luteolin-induced biofilm synthesis
- Response to luteolin relative to Burkholderia vietnamensis (Azoarcus sp. CIB; Azoarcus sp. CIB versus Burkholderia vietnamensis): lesser response to luteolin than Burkholderia vietnamensis
- Luteolin-induced biofilm synthesis [2]: displayed a luteolin-induced biofilm synthesis
- Luteolin-induced biofilm production (Azospirillum sp. 8510): did not show an enhanced biofilm production
- Luteolin-induced biofilm production [3]: did not show an enhanced biofilm production

Compound: O=c1cc(-c2ccc(O)cc2)oc2cc(O)cc(O)c12 [apigenin]
- Biofilm formation, comparison of flavones (FIG. 11) [1]: strongest biofilm induction
- Biofilm formation, comparison of flavones (FIG. 11) ([1]; listed as Apigenin): induced a larger biofilm production than Luteolin
- Biofilm formation in chemical screening (normalized to DMSO control) [1]: biofilm inducers
- Induction of biofilm formation in bacterial suspension (Glucanoacetobacter): showed the induction of biofilm formation
- Nitrogen fixation (conversion of acetylene to ethylene, gas chromatography) [4]: promote nitrogen fixation
- 15N assimilated in the leaves [5]: significant increase in ^15N into Nitrogen compounds
- Adherence of bacteria to the root surface and inside the root tissue [6]: Adherence of bacteria to the root surface and inside the root tissue can be seen

Compound: O=c1c(O)c(-c2ccc(O)c(O)c2)oc2cc(O)cc(O)c12 [Quercetin]
- Biofilm production (natural flavonoids, FIG. 7) [1]: Only luteolin induced a significant increase

Compound: O=c1c(O)c(-c2cc(O)c(O)c(O)c2)oc2cc(O)cc(O)c12 [Myricetin]
- Biofilm production (natural flavonoids, FIG. 7) [1]: Only luteolin induced a significant increase

Compound: O=C1C[C@@H](c2ccc(O)c(O)c2)Oc2cc(O)cc(O)c21 [Eriodictyol]
- Biofilm production (natural flavonoids, FIG. 7) [1]: Only luteolin induced a significant increase

Compound: O=C1C[C@@H](c2ccc(O)cc2)Oc2cc(O)cc(O)c21 [Naringenin]
- Biofilm production (natural flavonoids, FIG. 7) [1]: Only luteolin induced a significant increase

Compound: O=c1cc(-c2ccc(O)cc2)oc2cc(O[C@@H]3O[C@H](CO)[C@@H](O)[C@H](O)[C@H]3O)cc(O)c12 [apigenin-7-O-glucoside]
- Biofilm formation, comparison of flavones (FIG. 11) [1]: strongest biofilm induction
- Induction of biofilm formation in bacterial suspension (Glucanoacetobacter): showed the induction of biofilm formation
- Nitrogen fixation (conversion of acetylene to ethylene, gas chromatography) [4]: promote nitrogen fixation
